Reference: patent US9958461B2, “Detection of protein to protein interactions” (THE GOVERNING COUNCIL OF THE UNIVERSITY OF TORONTO, priority 2013, dated 2018)

Assays:
EGFR-ex19del = assay: Western blot of EGFR-ex19del bait phosphorylation after erlotinib (anti-phospho-EGFR); conditions: 0, 250 or 500 nM Erlotinib, 20 h, serum-containing media
Description: (a) Left panel: Relative luciferase activity of stable 5×GAL4UAS-HEK293T luciferase reporter cells co-transfected with various oncogenic ErbB baits and Shc1 prey. […] (b) Luciferase activity of sable 5×GAL4UAS-HEK293T luciferase reporter cells co-transfected with EGFR-Wt, EGFR-L858R or EGFR-D855A-kinase dead baits and Shc1 adaptor prey. (c)-(d) Western Blot showing expression of various receptors using anti-V5 antibodies and phosphor-tyrosine-specific antibodies. […] (h) Western Blot analysis of EGFR-Wt, EGFR-L858R, EGFR-exon19de and EGFR-L858R/T790A baits transfected into stable5×GAL4UAS-luciferase HEK293T reporter cells in serum-containing media.
Western blot analysis was performed using standard protocols. Briefly, cells were either directly harvested in 2×sample buffer or harvested in 1×reporter lysis buffer (Promega) containing protease inhibitors (Complete-EDTA, Roche) and 2×sample buffer was added after freezing the cells at −80° C. For phospho-specific antibodies, cells were lysed in Ripa buffer containing Na-orthovanadate, PMSF and protease inhibitor and 2×SB was added and samples were immediately boiled at 95° C. for 5 min and proceeded for Western Blot analysis. […] Transferred samples were immunoblotted with primary antibodies, followed by incubation with HRP-coupled secondary antibodies, and detection was performed using GE-Healthcare enhanced luminescence. […]

ErbB4/Shc1 interaction = target: T1, ErbB4/Shc1 interaction (Homo sapiens, UniProt Q15303); assay: MaMTH luciferase reporter assay, ErbB4 bait / Shc1 prey with TKI-PD158780; assay type: cell-based; conditions: presence/absence of TKI-PD158780
T1 construct: with the advantage of testing full-length integral membrane proteins; (GGGGS)2 linker-Cub (human ubiquitin aa 35-76)-transcription factor (GAL4-mNFkB or mLexA-VP16; expressed in transfected cells; HEK293T reporter lines are used throughout)
Description: FIG. 7: (a) Graph illustrating relative lucifease activity of serum stimulated PPIs. Stable 5×GAL4UAS-luciferase reporter cell lines were co-transfected with ErbB2 bait and preys. Luciferase activity was measured 24 h following transfection in the absence/presence of serum. […] The plotted values represent relative-luciferase signals calculated as fold-change increase above averaged negative controls. (b) Graph illustrating relative luciferase activity of drug-inhibited protein-protein interactions. Following transfection, ErbB4 interaction with either Shc1 or non-interacting Pex13 was measured in presence/absence of non-specfic TKI-PD158780. Plotted values represent relative luciferase signals calculated as fold-change increase above bait only controls.
We then sought to more specifically focus on the ErbB subfamily of receptor tyrosine kinases (RTK) to investigate ligand-dependent and drug-inhibited interactions. The ErbB family consists of 4 closely related receptors: EGFR, ErbB2, ErbB3, and ErbB4. Elucidation of cell signaling via all four ErbB receptors is of great therapeutic interest since they are frequently found mutated or overexpressed in several cancer. […]

T1 sequence (Q15303 26-1308): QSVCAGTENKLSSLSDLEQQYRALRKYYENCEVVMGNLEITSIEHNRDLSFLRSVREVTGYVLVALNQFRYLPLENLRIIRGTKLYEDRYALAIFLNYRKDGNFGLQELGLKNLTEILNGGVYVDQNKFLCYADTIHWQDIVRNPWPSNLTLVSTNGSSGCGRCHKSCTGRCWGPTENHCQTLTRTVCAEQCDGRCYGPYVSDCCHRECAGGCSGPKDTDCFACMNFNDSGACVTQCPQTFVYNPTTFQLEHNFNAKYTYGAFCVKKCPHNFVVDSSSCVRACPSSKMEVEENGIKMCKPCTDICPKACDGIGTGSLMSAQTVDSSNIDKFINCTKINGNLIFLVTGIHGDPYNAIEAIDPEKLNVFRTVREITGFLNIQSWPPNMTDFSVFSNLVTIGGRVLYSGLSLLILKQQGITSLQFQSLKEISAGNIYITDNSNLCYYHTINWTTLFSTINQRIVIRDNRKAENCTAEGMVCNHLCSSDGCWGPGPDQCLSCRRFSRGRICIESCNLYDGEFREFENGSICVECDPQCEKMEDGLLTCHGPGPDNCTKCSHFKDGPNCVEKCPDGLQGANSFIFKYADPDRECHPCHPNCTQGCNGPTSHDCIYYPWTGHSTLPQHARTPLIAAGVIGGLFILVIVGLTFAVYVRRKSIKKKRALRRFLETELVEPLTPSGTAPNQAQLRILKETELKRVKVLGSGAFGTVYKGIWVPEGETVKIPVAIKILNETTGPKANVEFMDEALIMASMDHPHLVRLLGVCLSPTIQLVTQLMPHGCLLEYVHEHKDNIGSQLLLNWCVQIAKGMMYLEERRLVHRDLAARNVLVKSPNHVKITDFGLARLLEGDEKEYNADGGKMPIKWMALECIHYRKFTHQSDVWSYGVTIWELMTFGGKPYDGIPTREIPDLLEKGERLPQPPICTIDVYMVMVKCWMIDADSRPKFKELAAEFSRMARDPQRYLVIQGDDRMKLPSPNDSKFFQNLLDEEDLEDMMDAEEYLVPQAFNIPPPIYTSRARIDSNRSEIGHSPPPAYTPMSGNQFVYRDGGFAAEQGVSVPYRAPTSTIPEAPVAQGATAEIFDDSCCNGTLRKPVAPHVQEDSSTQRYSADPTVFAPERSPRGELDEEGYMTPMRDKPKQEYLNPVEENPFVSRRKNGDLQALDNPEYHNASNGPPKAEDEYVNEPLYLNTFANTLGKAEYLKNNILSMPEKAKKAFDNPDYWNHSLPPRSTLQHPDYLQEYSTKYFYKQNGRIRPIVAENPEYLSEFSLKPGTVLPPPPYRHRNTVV

Compound | Receptor phosphorylation upon Erlotinib treatment (Western blot) (EGFR-ex19del) | Effect on Shc1-adaptor protein binding to ErbB4 (ErbB4/Shc1 interaction)
C#Cc1cccc(Nc2ncnc3cc(OCCOC)c(OCCOC)cc23)c1 [Erlotinib] | sensitive to Erlotinib | 
CNc1cc2c(Nc3cccc(Br)c3)ncnc2cn1 [TKI-PD158780] |  | reduced Shc1-adaptor protein binding
